Data taken from paper PMC10247784, “Physiological activation of human and mouse bitter taste receptors by bile acids” (Communications Biology, 2023).

Biological target: T1, mouse Tas2r126 (Mus musculus, UniProt P59532)
T1 construct: expressed in transfected cells; host or cells: HEK293T-Gα16gust44
T1 sequence (P59532 1-308): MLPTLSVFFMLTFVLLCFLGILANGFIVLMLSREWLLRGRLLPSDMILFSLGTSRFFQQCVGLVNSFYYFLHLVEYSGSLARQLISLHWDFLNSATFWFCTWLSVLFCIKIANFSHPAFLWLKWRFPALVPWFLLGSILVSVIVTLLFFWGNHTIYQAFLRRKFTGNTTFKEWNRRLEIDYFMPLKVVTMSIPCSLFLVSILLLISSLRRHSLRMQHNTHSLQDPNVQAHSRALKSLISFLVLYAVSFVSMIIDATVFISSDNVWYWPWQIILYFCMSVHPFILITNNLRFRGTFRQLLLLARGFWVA
Assay: Calcium imaging assay (FLIPR), HEK293T-Gα16gust44 cells transfected with mouse Tas2r126
Type: cell-based
Settings: for Δ F/F: Tas2r126
Description: This set of bile acids was chosen because of their commercial availability in high purities, their diversity within the class of bile acids and their previous detection and quantitation in human blood. Stock solutions were prepared in DMSO.
As basal growth medium for the HEK293T-Gα16gust44 cell line[17],[59] served Dulbecco’s modified eagle medium (DMEM) (Thermo Fisher Scientific, Darmstadt, Germany) supplemented with 10 % fetal bovine serum (Sigma-Aldrich, Steinheim, Germany), 2 mM L-glutamine (Sigma-Aldrich, Steinheim, Germany), 100 units/ml penicillin (Sigma Aldrich, Steinheim, Germany) and 100 µg/ml streptomycin (Sigma Aldrich, Steinheim, Germany). Growth conditions were 37 °C, 5 % CO2 and saturated air-humidity[60].
HEK293T-Gα16gust44 cells were seeded on poly-D-lysine (10 µg/ml) coated 96-well plates to reach a confluence of 40-60 % the next day. For transient transfection 150 ng of plasmid DNA containing the receptor of interest and 0.3 µl lipofectamine 2000 (Thermo Fisher Scientific, Darmstadt, Germany) per well were used and transfection took place according to the manual of lipofectamine 2000. […] The empty vector DNA (mock) was transfected as negative control[14],[41].
Cells were loaded using the calcium-sensitive fluorescent dye Fluo-4-AM (Abcam, Cambridge, Great Britain) in the presence of 2.5 mM probenecid (Sigma-Aldrich, Steinheim, Germany) the day after transfection[13],[41]. 1 h after loading, cells were washed with C1 buffer using a BioTek Cell Washer, incubated in the dark for half an hour and washed again. For automated agonist application and measurement of fluorescence changes, a FLIPR^TETRA device (Molecular Devices, San José, United States) was used. Viability of cells was tested by application of 100 nM Somatostatin 14 (Bachem, Bubendorf, Switzerland)[42].
Measured data were negative control corrected by subtracting the signal of the mock-transfected cells and exported to Microsoft Excel using the FLIPR software ScreenWorks 4.2. In Microsoft Excel software, standardization of maximum fluorescence intensities to the basal fluorescence and normalization to the buffer-only control was done to calculate the relative fluorescence changes (ΔF/F).
Initial screening experiments performed in duplicate wells were confirmed by at least one replication and representative traces were selected for display. All dose-response relationships were determined by three independent experiments (biological replicates) performed in duplicates (technical replicates). Threshold concentrations, defined as lowest substance concentrations leading to statistically significant elevated fluorescence changes in receptor-transfected cells compared with empty vector-transfected cells, were determined using SigmaPlot with Student’s t-test to evaluate statistical significance (p < 0.01).

C[C@H](CCC(=O)NCC(=O)O)[C@H]1CC[C@H]2[C@@H]3[C@H](O)C[C@@H]4C[C@H](O)CC[C@]4(C)[C@H]3C[C@H](O)[C@]12C [Glycocholic Acid, glycocholic acid]
Δ F/F (conc. 0,01 mM): 0.008892
Δ F/F (conc. 0,1 mM): 0.01338
Δ F/F (conc. 0,03 mM): 0.009319
Δ F/F (conc. 0,3 mM): 0.02767
Δ F/F (conc. 0,001 mM): 0.01077
Δ F/F (conc. 1 mM): 0.17
Δ F/F (conc. 0,003 mM): 0.01208
RLU (Time 0 s): 0 RLU
RLU (Time 2 s): -8.029 RLU
RLU (Time 4 s): 1.1384 RLU
RLU (Time 6 s): 10.4148 RLU
RLU (Time 8 s): -13.1228 RLU
RLU (Time 12 s): 17.4885 RLU
RLU (Time 14 s): -0.7257 RLU
RLU (Time 16 s): -10.5283 RLU
RLU (Time 18 s): 16.8146 RLU
RLU (Time 18.781 s): 23.6211 RLU
RLU (Time 20.781 s): -40.338 RLU
RLU (Time 22.781 s): 22.3326 RLU
RLU (Time 24.781 s): 63.7084 RLU
RLU (Time 26.781 s): 76.1804 RLU
RLU (Time 28.781 s): 137.207 RLU
RLU (Time 30.781 s): 214.617 RLU
RLU (Time 32.781 s): 318.834 RLU
RLU (Time 34.781 s): 384.223 RLU
RLU (Time 36.781 s): 455.203 RLU
RLU (Time 38.781 s): 531.38 RLU
RLU (Time 40.781 s): 571.264 RLU
RLU (Time 42.781 s): 599.999 RLU
RLU (Time 44.781 s): 648.8 RLU
RLU (Time 46.781 s): 709.576 RLU
RLU (Time 48.781 s): 742.486 RLU
RLU (Time 50.781 s): 750.019 RLU
RLU (Time 52.781 s): 771.673 RLU
RLU (Time 54.781 s): 762.339 RLU
RLU (Time 56.781 s): 801.528 RLU
RLU (Time 58.781 s): 778.328 RLU
RLU (Time 60.781 s): 814.918 RLU
RLU (Time 62.781 s): 813.898 RLU
RLU (Time 64.781 s): 822.442 RLU
RLU (Time 66.781 s): 857.883 RLU
RLU (Time 68.781 s): 851.231 RLU
RLU (Time 70.781 s): 849.562 RLU
RLU (Time 72.781 s): 871.931 RLU
RLU (Time 74.781 s): 863.674 RLU
RLU (Time 76.781 s): 844.593 RLU
RLU (Time 78.781 s): 886.207 RLU
RLU (Time 80.781 s): 865.546 RLU
RLU (Time 82.781 s): 883.065 RLU
RLU (Time 84.781 s): 898.032 RLU
RLU (Time 86.781 s): 896.748 RLU
RLU (Time 88.781 s): 900.918 RLU
RLU (Time 90.781 s): 874.944 RLU
RLU (Time 92.781 s): 885.691 RLU
RLU (Time 94.781 s): 894.456 RLU
RLU (Time 96.781 s): 901.176 RLU
RLU (Time 98.781 s): 886.538 RLU
RLU (Time 100.781 s): 892.555 RLU
RLU (Time 102.781 s): 881.874 RLU
RLU (Time 104.781 s): 894.645 RLU
RLU (Time 106.781 s): 887.982 RLU
RLU (Time 108.781 s): 886.297 RLU
RLU (Time 110.781 s): 884.059 RLU
RLU (Time 112.781 s): 887.824 RLU
RLU (Time 114.781 s): 848.107 RLU
RLU (Time 116.781 s): 861.685 RLU
RLU (Time 118.781 s): 828.869 RLU
RLU (Time 120.781 s): 825.037 RLU
RLU (Time 122.781 s): 836.581 RLU
RLU (Time 124.781 s): 866.188 RLU
RLU (Time 126.781 s): 858.575 RLU
RLU (Time 128.781 s): 826.803 RLU
RLU (Time 130.781 s): 818.964 RLU
RLU (Time 132.781 s): 847.33 RLU
RLU (Time 134.781 s): 852.99 RLU
RLU (Time 136.781 s): 809.769 RLU
RLU (Time 137.563 s): 804.878 RLU
RLU (Time 143.563 s): 793.514 RLU
RLU (Time 149.563 s): 748.056 RLU
RLU (Time 155.563 s): 797.54 RLU
RLU (Time 161.563 s): 777.219 RLU
RLU (Time 167.563 s): 736.981 RLU
RLU (Time 173.563 s): 734.04 RLU
RLU (Time 179.563 s): 691.98 RLU
RLU (Time 185.563 s): 705.69 RLU
RLU (Time 191.563 s): 730.013 RLU
RLU (Time 197.563 s): 719.476 RLU
RLU (Time 203.563 s): 676.213 RLU
RLU (Time 209.563 s): 680.042 RLU
RLU (Time 215.563 s): 670.332 RLU
RLU (Time 221.563 s): 696.914 RLU
RLU (Time 227.563 s): 687.176 RLU
RLU (Time 233.563 s): 674.703 RLU
RLU (Time 239.563 s): 658.755 RLU
RLU (Time 245.563 s): 686.39 RLU
RLU (Time 293.563 s): 673.116 RLU
RLU (Time 299.563 s): 656.796 RLU
RLU (Time 305.563 s): 663.675 RLU
RLU (Time 311.563 s): 633.551 RLU
RLU (Time 317.563 s): 673.002 RLU
RLU (Time 323.563 s): 666.023 RLU
RLU (Time 329.563 s): 652.752 RLU
RLU (Time 335.563 s): 658.256 RLU
RLU (Time 341.563 s): 702.617 RLU
RLU (Time 347.563 s): 659.503 RLU
RLU (Time 353.563 s): 654.507 RLU
RLU (Time 359.563 s): 650.344 RLU
Activation threshold concentration Tas2r126 (p < 0.01 vs empty vector): 100 µM
